Several values for one entry are separate records, joined by “and”; a condition that tells them apart may be missing. Identical values can stand only once. Inconclusive results and toxic doses are left out. Rule for the calls: active = survival T/C of 150% or more; inactive = T/C below 125% in these data. Residues, ends and D or L forms follow the SMILES beside them.
Tested on: BDF1 mice, P388 leukemia ip, median survival T/C
Assay: NCI In Vivo Anticancer Drug Screen. Data for tumor model P388 Leukemia (intraperitoneal) in B6D2F1 (BDF1) mice
Details: endpoint: median survival time, higher = longer survival
Procedure, shortened: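 Reported as T/C, where T is the survival measurement in dosed animals and C the same measurement in vehicle controls.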

[1] = dose: 50.0 mg/kg/injection, schedule: Q01DX009 (ip), vehicle: saline with Tween-80
[2] = dose: 100.0 mg/kg/injection, schedule: Q01DX009 (ip), vehicle: saline with Tween-80
[3] = dose: 200.0 mg/kg/injection, schedule: Q01DX009 (ip), vehicle: saline with Tween-80
[4] = dose: 100.0 mg/kg/injection, schedule: Q01DX001 (ip), vehicle: Klucel (hydroxypropylcellulose) (HPC)
[5] = dose: 200.0 mg/kg/injection, schedule: Q01DX001 (ip), vehicle: Klucel (hydroxypropylcellulose) (HPC)
[6] = dose: 400.0 mg/kg/injection, schedule: Q01DX001 (ip), vehicle: Klucel (hydroxypropylcellulose) (HPC)
[7] = dose: 100.0 mg/kg/injection, schedule: Q04DX003 (ip), vehicle: saline
[8] = dose: 6.25 mg/kg/injection, schedule: Q01DX009 (ip), vehicle: saline with Tween-80
[9] = dose: 12.5 mg/kg/injection, schedule: Q01DX009 (ip), vehicle: saline with Tween-80
[10] = dose: 25.0 mg/kg/injection, schedule: Q01DX009 (ip), vehicle: saline with Tween-80
[11] = dose: 400.0 mg/kg/injection, schedule: Q04DX003 (ip), vehicle: saline with Tween-80
[12] = dose: 50.0 mg/kg/injection, schedule: Q01DX005 (ip), vehicle: saline
[13] = dose: 100.0 mg/kg/injection, schedule: Q01DX005 (ip), vehicle: saline
[14] = dose: 100.0 mg/kg/injection, schedule: Q01DX009 (ip), vehicle: water
[15] = dose: 100.0 mg/kg/injection, schedule: Q04DX003 (ip), vehicle: water
[16] = dose: 200.0 mg/kg/injection, schedule: Q01DX009 (ip), vehicle: water
[17] = dose: 200.0 mg/kg/injection, schedule: Q04DX003 (ip), vehicle: water
[18] = dose: 400.0 mg/kg/injection, schedule: Q01DX009 (ip), vehicle: water
[19] = dose: 400.0 mg/kg/injection, schedule: Q04DX003 (ip), vehicle: water

Measured: T/C

COC(=O)CCN(c1ccccc1)S(=O)(=O)c1ccc(C)cc1
inactive: dose: 100.0 mg/kg/injection, schedule: Q01DX009 (ip), vehicle: Klucel (hydroxypropylcellulose) (HPC) 104 % of control | dose: 100.0 mg/kg/injection, schedule: Q04DX003 (ip), vehicle: Klucel (hydroxypropylcellulose) (HPC) 100 % of control | dose: 200.0 mg/kg/injection, schedule: Q01DX009 (ip), vehicle: Klucel (hydroxypropylcellulose) (HPC) 104 % of control | dose: 200.0 mg/kg/injection, schedule: Q04DX003 (ip), vehicle: Klucel (hydroxypropylcellulose) (HPC) 100 % of control | dose: 400.0 mg/kg/injection, schedule: Q01DX009 (ip), vehicle: Klucel (hydroxypropylcellulose) (HPC) 95 % of control | dose: 400.0 mg/kg/injection, schedule: Q04DX003 (ip), vehicle: Klucel (hydroxypropylcellulose) (HPC) 100 % of control

CCCCCCCCCCCCCC(=O)[O][Sn]([CH2]CCC)([CH2]CCC)[O]C(=O)CCCCCCCCCCCCC
inactive: dose: 0.78 mg/kg/injection, schedule: Q04DX003 (ip), vehicle: other 104 % of control | dose: 1.56 mg/kg/injection, schedule: Q04DX003 (ip), vehicle: other 109 % of control | dose: 3.13 mg/kg/injection, schedule: Q04DX003 (ip), vehicle: other 113 % of control

O=[N+]([O-])c1ccc(CCSCCc2ccc([N+](=O)[O-])cc2)cc1
inactive: dose: 50.0 mg/kg/injection, schedule: Q01DX005 (ip), vehicle: Klucel (hydroxypropylcellulose) (HPC) 104 % of control | dose: 100.0 mg/kg/injection, schedule: Q01DX005 (ip), vehicle: Klucel (hydroxypropylcellulose) (HPC) 97 % of control | dose: 200.0 mg/kg/injection, schedule: Q01DX005 (ip), vehicle: Klucel (hydroxypropylcellulose) (HPC) 94 % of control

O=C(Nc1cccc(C(=O)Nc2ccc(C3=NCCN3)cc2)c1)c1ccc(C2=NCCN2)cc1
inactive: dose: 16.5 mg/kg/injection, schedule: Q01DX009 (ip), vehicle: saline 122 % of control

C/C(=C\c1ccccc1)C(C)(C)C(=O)O
inactive: [1] 102 % of control | [2] 96 % of control | [3] 99 % of control

N#CN=CN1CCN(c2ccccn2)CC1
inactive: [1] 91 % of control | [2] 90 % of control | [3] 93 % of control

CC1=CC2C(C3C=CC2(C)C(=O)C3(C)Cc2ccccc2)C(C)(Cc2ccccc2)C1=O (configuration not stated)
inactive: [4] 95 % of control | [5] 95 % of control | [6] 90 % of control

CCCCCCCCCCCC1CCCC(C)N1 (configuration not stated)
inactive: [7] 100 % of control | dose: 200.0 mg/kg/injection, schedule: Q04DX003 (ip), vehicle: saline 95 % of control | dose: 400.0 mg/kg/injection, schedule: Q04DX003 (ip), vehicle: saline 91 % of control and 95 % of control

Nc1ccc(Cl)c(Cl)c1
inactive: [1] 98 % of control | dose: 50.0 mg/kg/injection, schedule: Q01DX009 (ip), vehicle: saline 106 % of control | [2] 104 % of control | dose: 100.0 mg/kg/injection, schedule: Q01DX009 (ip), vehicle: saline 118 % of control | [3] 104 % of control

O=NN(CCF)C(=O)NC1CCCCC1
inactive: dose: 1.0 mg/kg/injection, schedule: Q04DX003 (ip), vehicle: saline with Tween-80 90 % of control | dose: 2.0 mg/kg/injection, schedule: Q04DX003 (ip), vehicle: saline with Tween-80 105 % of control | dose: 4.0 mg/kg/injection, schedule: Q04DX003 (ip), vehicle: saline with Tween-80 120 % of control | [10] 121 % of control | dose: 25.0 mg/kg/injection, schedule: Q04DX003 (ip), vehicle: saline with Tween-80 95 % of control | dose: 37.5 mg/kg/injection, schedule: Q04DX003 (ip), vehicle: saline with Tween-80 95 % of control
active: [8] 217 % of control | [9] 260 % of control | dose: 16.5 mg/kg/injection, schedule: Q04DX003 (ip), vehicle: saline with Tween-80 272 % of control

O=[N+]([O-])c1ccc(F)c(CNc2ncnc3c2ncn3C2CCCCO2)c1 (configuration not stated)
inactive: [4] 95 % of control | [5] 110 % of control | [6] 105 % of control

CC(=O)n1cc(F)c(=O)[nH]c1=O
inactive: dose: 0.57 mg/kg/injection, schedule: Q01DX009 (ip), vehicle: saline 116 % of control | dose: 0.99 mg/kg/injection, schedule: Q01DX009 (ip), vehicle: saline 113 % of control | dose: 1.3 mg/kg/injection, schedule: Q01DX009 (ip), vehicle: saline 122 % of control | dose: 5.0 mg/kg/injection, schedule: Q04DX003 (ip), vehicle: saline 122 % of control | dose: 25.0 mg/kg/injection, schedule: Q04DX003 (ip), vehicle: saline 122 % of control | [1] 86 % of control | dose: 100.0 mg/kg/injection, schedule: Q04DX003 (ip), vehicle: other 108 % of control | dose: 150.0 mg/kg/injection, schedule: Q04DX003 (ip), vehicle: other 100 % of control | [11] 90 % of control
active: dose: 2.0 mg/kg/injection, schedule: Q01DX009 (ip), vehicle: saline 165 % of control | dose: 3.12 mg/kg/injection, schedule: Q01DX009 (ip), vehicle: saline with Tween-80 150 % of control | [8] 160 % of control and 165 % of control | dose: 7.2 mg/kg/injection, schedule: Q01DX009 (ip), vehicle: saline with Tween-80 166 % of control | [9] 178 % of control and 215 % of control | [10] 235 % of control and 195 % of control | dose: 50.0 mg/kg/injection, schedule: Q04DX003 (ip), vehicle: saline with Tween-80 155 % of control | dose: 50.0 mg/kg/injection, schedule: Q04DX003 (ip), vehicle: saline 150 % of control | [7] 181 % of control

O=C(Nc1cccc2cccnc12)C12CC3CC(CC(C3)C1)C2
inactive: [1] 96 % of control | [2] 96 % of control | [3] 100 % of control

COC(=O)C(NC(=O)C(NC(=O)C(N)C(C)C)C(C)C)C(C)C (stereo not drawn) (H-Val-Val-Val-OMe; configuration not given here)
inactive: [12] 101 % of control | [13] 99 % of control | dose: 200.0 mg/kg/injection, schedule: Q01DX005 (ip), vehicle: saline 92 % of control

[NH-]C(CCC(N)=O)C(=O)O.[NH-]C(CCCN=C(N)N)C(=O)O.[Zn+2] (configuration not stated)
inactive: [12] 104 % of control | [13] 120 % of control

C[N+](C)(CC(=O)Nc1ccc(Cl)c(C(F)(F)F)c1)CC(=O)c1ccc(Cl)c(Cl)c1
inactive: dose: 200.0 mg/kg/injection, schedule: Q04DX003 (ip), vehicle: saline sonified 100 % of control | dose: 400.0 mg/kg/injection, schedule: Q04DX003 (ip), vehicle: saline sonified 104 % of control

O=C1c2cc(Cl)ccc2-c2c(NC(=O)C(Cl)Cl)cc(Cl)cc21
inactive: dose: 100.0 mg/kg/injection, schedule: Q04DX003 (ip), vehicle: saline with Tween-80 104 % of control | dose: 200.0 mg/kg/injection, schedule: Q04DX003 (ip), vehicle: saline with Tween-80 113 % of control | [11] 104 % of control

NC(Cc1nn[nH]n1)C(=O)O (configuration not stated)
inactive: [14] 100 % of control | [15] 97 % of control | [16] 94 % of control | [17] 96 % of control | [18] 94 % of control | [19] 90 % of control

CC(C)(N)CCC(C)(C)NCCC#N
inactive: dose: 50.0 mg/kg/injection, schedule: Q01DX009 (ip), vehicle: water 103 % of control | [14] 99 % of control | [15] 110 % of control | [16] 122 % of control | [17] 103 % of control | [18] 114 % of control | [19] 103 % of control

O=c1[nH]c(=O)c2cccnc2[nH]1
inactive: dose: 25.0 mg/kg/injection, schedule: Q01DX009 (ip), vehicle: saline sonified 100 % of control | dose: 50.0 mg/kg/injection, schedule: Q01DX009 (ip), vehicle: saline sonified 100 % of control | dose: 100.0 mg/kg/injection, schedule: Q01DX009 (ip), vehicle: saline sonified 94 % of control

OCC(O)C(O)C(O)C(O)C=Nc1ccc(/C=C/c2ccnc3ccccc23)cc1 (configuration not stated)
inactive: [1] 109 % of control | [2] 105 % of control | [3] 112 % of control
